We go through two compounds from BindingDB's records for patent US11306098 (Venenum Biodesign, 2022).

Assay [1] deals with T1, Three-prime repair exonuclease 1 (Mus musculus, UniProt Q91XB0).
T1 sequence (Q91XB0 whole entry): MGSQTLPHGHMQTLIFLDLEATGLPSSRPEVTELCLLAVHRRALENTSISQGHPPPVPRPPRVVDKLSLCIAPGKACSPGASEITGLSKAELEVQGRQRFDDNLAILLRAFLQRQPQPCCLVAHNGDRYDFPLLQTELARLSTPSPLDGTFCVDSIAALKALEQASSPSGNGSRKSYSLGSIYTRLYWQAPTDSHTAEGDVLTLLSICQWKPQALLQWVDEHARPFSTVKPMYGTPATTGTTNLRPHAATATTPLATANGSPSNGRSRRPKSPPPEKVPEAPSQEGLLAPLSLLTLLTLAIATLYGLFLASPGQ

In assay [2] the target is T2, Three-prime repair exonuclease 1 (Homo sapiens, UniProt Q9NSU2).
T2 sequence (Q9NSU2 whole entry): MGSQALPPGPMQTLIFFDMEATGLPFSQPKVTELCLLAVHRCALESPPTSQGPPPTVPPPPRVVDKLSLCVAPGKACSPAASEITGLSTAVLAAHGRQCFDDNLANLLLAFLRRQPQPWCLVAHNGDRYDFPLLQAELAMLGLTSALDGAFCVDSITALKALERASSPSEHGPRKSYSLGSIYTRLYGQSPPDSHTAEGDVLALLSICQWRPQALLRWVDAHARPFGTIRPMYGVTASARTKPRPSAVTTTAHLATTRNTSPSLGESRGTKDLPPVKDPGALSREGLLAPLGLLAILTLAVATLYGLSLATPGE
In words: Exonuclease Assay. On the procedure:
To evaluate the effect of compounds on TREX1 activity, test compounds were serially diluted (11-point, 3-fold) from 10 mM stock solutions and delivered to 384-well low-volume assay plates in 80 nL DMSO using an acoustic dispenser. Next, 4 μL of human TREX1 (0.5 nM), or murine TREX1 (1 nM), diluted in assay buffer (20 mM Tris pH 7.5, 5 mM MgCl2, 100 μg/mL BSA, 0.002% Triton X-100, 2 mM DTT), was added to the assay plate. After incubating for 30 minutes, 4 μL of labeled DNA oligonucleotide (500 nM) in assay buffer was added to initiate TREX1 exonuclease activity. The reaction was allowed to proceed for 45 minutes at room temperature prior to the addition of 4 μL of 150 mM EDTA to halt TREX1 activity. Assay plates were equilibrated for an additional 30 minutes and read on an EnVision Plate Reader (Perkin Elmer) to measure fluorescence emission at 535 nm following excitation at 485 nm. Fluorescence was plotted as a function of log molar compound concentration and fit to four-parameter dose-response equation to determine compound IC50.

Take `CC(C)C[C@H](C(=O)NCc1ccc(Cl)c(Cl)c1)N1CCC(CCc2ccccc2)N2C[C@H](N)C[C@H]2C1=O` (some centres undefined) [US11306098, Example 1]: the IC50 in assay [1] and in assay [2] was under 1000 nM in each case.
As to `N[C@@H]1C[C@H]2C(=O)N([C@H](CO)C(=O)NCc3ccc(Cl)c(Cl)c3)CCC(CCc3ccccc3)N2C1` (some centres undefined) [US11306098, Example 3], the half-maximal inhibitory concentration (IC50) in assay [1] and in assay [2] was under 1000 nM in each case.
